According to US7939530B2, “Treatment of lymphoma using 10-propargyl-10-deazaaminopterin and gemcitabine” (Sloan-Kettering Institute for Cancer Research, priority 2004, dated 2011):

What was measured:
[1] = system: SKI-DLCL-1 lymphoma cells; assay: Trypan Blue Exclusion cytotoxicity assay of single agents and combinations; assay type: cell-based, human; conditions: MTX 10 nM, PDX 1 nM, Ara-C 40 nM, Gem 10 nM, control = 1
Description: As set forth in greater detail in the examples herein, combination therapy using PDX and gemcitabine has been tested in vitro and in in vivo model systems for efficacy against lymphoma. Table 1 sets forth data obtained in a cytotoxicity assay (Example 2) using SKI-DLCL-1 lymphoma cells. SKI-DLCL-1 is a diffuse large b cell lymphoma (DLBCL) cell line that is particularly resistant to PDX.
In Table 1, the additive effect is in each case the % of control for the single agents multiplied together. The expected additive effect for PDX+Gem is better than for MTX and ara-C, because the agents are individually better. What is observed for both MTX/AraC combinations and PDX/Gem combinations is that the actual result is better than the predicted additive result. The extent of this synergism is quantified in Table 1 as (actual-additive)/additive so that the amount of reduction that occurs through the use of the combination is expressed as a percentage of the expected additive benefit.
To evaluate cytotoxicity of combination of PDX and GEM, a Trypan Blue Exclusion Assay was performed by aliquoting 5×10^5 SKI-DLBCL cells into each well of a 24 well plate with a final volume of 1 milliliter. Each drug was added in duplicate to the plate wells as follows: alone (MTX 10 nM, PDX 1 nM, Ara-C 40 nM, or Gem 10 nM), PDX+Gem or MTX+Ara-C for 48 h (hours). For the scheduled administration of drug, PDX or MTX alone were dispensed in additional duplicate wells. After 24 hours Gem and Ara-C were added to these wells, respectively, and incubated for 48 hours. At the end of incubation, 20 l of each cell culture was added to 20 l of trypan blue, after which […] was added to a hemocytometer (Hausser Scientific, Horsham, Pa.), where viable cells were counted based upon the presence (dead cells) or exclusion (live cells) of dye.

SKI-DLCL-1 cells = assay: Induction of apoptosis (YO-PRO-1/propidium iodide flow cytometry); assay type: cell-based, human; conditions: all drugs 1 nM, total exposure 72 hours, sequential: first drug 24 hours prior to second
Protocol: Ara-C, PDX and Gem in combined and scheduled exposures. In each case, the total exposure time was 72 hours. In sequential treatments, the first drug was administered 24 hours prior to the second drug.
To assess apoptosis occurring as a result of combination therapies, apoptosis was assessed using two well standardized techniques. In the first (YO-PRO), cell membrane permeability was determined by measuring fluorescence of treated and control cells. 2×10^7 SKI-DLBCL cells were treated with either MTX, Ara-C, Gem or PDX alone or combinations of drug given together or scheduled. All drugs were assayed at equimolar concentrations (i.e. 1 nM). The incubation conditions were modeled after the in vitro cytotoxicity experiments. Single agent drugs or combinations of all drugs studied without schedule considerations were incubated for 72 hours, while drugs that were studied in some schedule were introduced in a 24+48 incubation scheme (i.e. drug B added 24 hours following drug A, then incubated for an additional 48 hours for a total incubation time of 72 hours). Cells were then collected, washed twice and re-suspended at a concentration of 1×10^6/mL in DPBS. Membrane permeability was detected via the differential cellular permeability of the fluorescent dyes YO-PRO®-1 and propidium iodide by flow cytometry, as per the manufacturer's guidelines (Vybrant apoptosis kit #4, Molecular Probes, Eugene, Oreg.). In addition to monitoring apoptosis, cell cycle kinetic analyses were also performed on all treated cells based the propidium iodide binding. Apoptotic cells were noted to be permeable to the green fluorescent dye YO-PRO®-1 (em 530, FL-1), and impermeable to the red fluorescent dye propidium iodide (em 575, FL-3). Typically, […] cells allow the entrance of both dyes, whereas living cells are impermeable to both dyes.

[2] = system: caspase 3 in SKI-DLCL-1 cells; assay: Caspase 3 activation (EnzChek Caspase-3 Assay Kit #2, Z-DEVD-R110 cleavage); assay type: cell-based, human; conditions: for Fluorescence at 485ex/527em: 1 nM, control 134.3; for Difference from control: fluorescence at 485ex/527em
Protocol: To further evaluate the activity of PDX and Gem combinations, Caspase activity was tested by EnzChek® Caspase-3 Assay Kit #2 (Molecular Probes) based upon the fluorometric detection of caspase-dependent Z-DEVD-R110 cleavage (rhodamine 110 bis-[N-CBZ-L-aspartyl-L-glutamyl-L-valyl-L-aspartic acid amide], a non-fluorescent bisamide), which, via a two step process, first yields the monoamide product (weakly fluorescent) and then the fluorescent product R110 (rhodamine 110, strongly fluorescent). Detection was performed on a Fluoroskan Ascent FL fluorescent plate reader (Thermo Lab Systems, Helsinki, Finland) according to the manufacturer's guidelines.

[3] = system: subcutaneous tumors of SKI; assay: Preliminary combination xenograft experiment; assay type: in vivo, irradiated NOD-SCID mice; conditions: for tumor growth compared to the control: MTX 40 mg/kg (MTD), Ara-C 300 mg/kg (MTD) or combination at one-half the MTD, all sacrificed by week three
Protocol: Given the experience that SKI-DLCL-1 is the most PDX resistant line in the panel, it was selected for these in vivo synergy experiments. […] All animals were treated with the maximum tolerated dose (MTD) of each drug, save the combination studies.

[4] = Second combination xenograft experiment (FIG. 5); conditions: SCID beige (CBSCBG-MM double), mouse, in vivo, ip
Protocol: (§1) The same type of test was repeated to assess the in vivo efficacy of using combination therapies. […] Schedule dependent treatment was also determined by pretreating animals with PDX or MTX followed 24 hours later with Gem or Ara-C, respectively. One cohort of animals was treated with Gem followed by PDX. In all cases, the control animals received intraperitoneal injections of normal saline.
(§2) Tumor bearing mice were assessed for weight loss and tumor volume at least twice weekly for the duration of the experiment. The data are expressed as the average tumor volume (mm3) per group as a function of time. Tumors were assessed by measuring the two largest perpendicular axes (l=length, w=width) with standard calipers. Tumor volume was calculated using the formula 4/3 πr^3 where r=(l+w)/4. Animals were sacrificed when one dimensional tumor diameter exceeded 2.0 cm, or after loss of more than 10% of their body weight in accordance with institutional guidelines. Animals were housed in standard shoe box cages in temperature and humidity constant rooms on a 12 hour light and dark cycle. Food and water were supplied ad libitum. Animals were maintained in core animal facilities under an institute approved animal protocol.

SKI-DLBCL-1 xenograft = assay: Second combination xenograft experiment (FIG. 5); conditions: SKI-DLBCL; PDX and Gem at one-quarter of the MTD (15 mg/kg); MTX, Ara-C alone at MTD; ip twice weekly, 4 doses
Protocol: as §1, §2

[5] = system: human HT (diffuse large B cell) non-Hodgkin's lymphoma xenografts; assay: Subcutaneous lymphoma xenograft treatment; assay type: in vivo; conditions: MTX 40 mg/kg; for Avg Tumor Diameter (mm ± SE): at the nadir of tumor regression
Description: (§3) In order to study the effects of PDX on lymphoma growth in vivo, subcutaneous transplantation models in NOD/SCID mice were generated using three established human lymphoma cell line representative of aggressive transformed FL (RL) and de novo extranodal DLBCL (HT; SKI-DLCL-1) histologies. Six to eight week old non-obsese diabetic severe combined immunodeficient (NOD/SCID) mice (Jackson Laboratories, Bar Harbor, Me.) were sub-lethally irradiated with […] from a gamma source and inoculated with 10×10^6 lymphoma cells via a subcutaneous route. When tumor volumes approached 100 mm^3, mice were divided into three groups, averaging 3-8 mice per group. Mice were treated with normal saline or the maximum tolerated dose (MTD) of MTX (40 mg/kg) or PDX (60 mg/kg) via an intraperitoneal route twice weekly for two weeks (four total doses). […] (Sirotnak, et al., Cancer Chemother. Pharmacol. 12: 26-30 (1984); Sirotnak et al., Cancer Chemother. Pharmacol. 42: 313-318 (1998).
(§4) Engraftment rates in this experiment ranged from 80 to 90%. Palpable tumors formed under the skin approximately 7-10 days after inoculation and were readily measurable with calipers. Mice with subcutaneous lymphoma growths survived an average of 40-50 days after inoculation.

[6] = system: human RL (transformed follicular) non-Hodgkin's lymphoma xenografts; assay: Subcutaneous lymphoma xenograft treatment; assay type: in vivo; conditions: MTX 40 mg/kg
Description: as §3, §4

[7] = system: human SKI-DLCL-1 (de novo diffuse large B cell) non-Hodgkin's lymphoma xenografts; assay: Subcutaneous lymphoma xenograft treatment; assay type: in vivo; conditions: MTX 40 mg/kg
Description: as §3, §4

SKI-DLBCL-1 xenografts = assay: TUNEL immunohistochemical staining for apoptosis in xenografts; assay type: in vivo, mice; conditions: day 21; four doses on days 0, 3, 7 and 10; MTX 40 mg/kg, PDX 60 mg/kg
Protocol: Immunohistochemical staining for apoptosis as measured by terminal deoxynucleotide transferase-mediated nick end-labeling (TUNEL) was performed on SKI-DLBCL-1 xenografts from mice sacrificed at day 21 following initiation of antifolate therapy. Mice received four doses of saline, MTX (40 mg/kg) or PDX (60 mg/kg) on days 0, 3, 7 and 10.

[8] = cited from earlier work
[9] = PDX 60 mg/kg ip twice weekly for two weeks

Row | Structure (SMILES) | fraction of control [1] | % change in apoptosis (SKI-DLCL-1 cells) [%] | Fluorescence at 485ex/527em [2] | Difference from control [2] | tumor growth compared to the control [3] | MTD at 2 weeks [4] [mg/kg] | xenograft outcome in words (SKI-DLBCL-1 xenograft) | other results
1 | Nc1ccn([C@@H]2O[C@H](CO)[C@@H](O)[C@@H]2O)c(=O)n1 [Ara-C, cytarabine] | 0.76 | −3.08 | 141.1 | 6.8 | modest growth delay | 300 | sacrificed early due to excessive tumor growth | –
2 | Nc1ccn([C@@H]2O[C@H](CO)[C@@H](O)C2(F)F)c(=O)n1 [Gem, 1-(2′,2′-difluoro-β-D-arabinofuranosyl) cytosine] | 0.72 | 33.76 | 195.4 | 61.1 | – | 60 | – | tumor volume as % of initial tumor volume ([3]; 60 mg/kg, regrowth by day 44 after initial response): 318%
3 | CN(Cc1cnc2nc(N)nc(N)c2n1)c1ccc(C(=O)N[C@@H](CCC(=O)O)C(=O)O)cc1 [MTX, methotrexate] | 0.92 | −12.24 | 131 | −3.3 | modest growth delay | – | sacrificed early due to excessive tumor growth | Complete Regression (no/total) ([5]; PDX 60 mg/kg): 0/7; complete tumor regression (% of mice) ([5]; PDX 60 mg/kg): no tumor regression; Avg change in Tumor Volume (mm^3 ± SE) [5, 9]: +300 ± 225 mm^3; Avg Tumor Diameter (mm ± SE) ([5]; PDX 60 mg/kg): 8.7 ± 2.0 mm; Avg Tumor Diameter (mm ± SE) ([5]; PDX 60 mg/kg, listed as MDX): 8.7 mm; Complete Regression (no/total) ([6]; PDX 60 mg/kg): 0/12; tumor regressions (% of mice) ([6]; PDX 60 mg/kg): no regressions; Avg Tumor Diameter (mm ± SE) [6, 9]: 10.9 ± 0.5 mm; Avg change in Tumor Volume (mm^3 ± SE) [6, 9]: +619 ± 108 mm^3; Complete Regression (no/total) ([7]; PDX 60 mg/kg): 0/10; tumor regressions / complete remissions (% of mice) ([7]; PDX 60 mg/kg): no regressions; Avg Tumor Diameter (mm ± SE) [7, 9]: 9.5 ± 0.4 mm; Avg change in Tumor Volume (mm^3 ± SE) [7, 9]: +299 ± 58 mm^3; apoptotic cells in tumor tissue (TUNEL) (SKI-DLBCL-1 xenografts): little or no evidence of apoptotic cells; maximum tolerated dose (MTD) ([8]; intraperitoneal, twice weekly for two weeks): 40 mg/kg; toxic deaths at the MTD ([8]; nude mice): no toxic deaths
